This is an account of results in patent EP1021178B1, “SELENOPHENE ANTI-TUMOR AGENTS” (Purdue Research Foundation, priority 1996, dated 1997).

The LC50 is the concentration lethal to half of the exposed cells or organisms.

Structures are written as SMILES. Where only a bound is given, the exact number is not on record here.

What all share (experiment): NCI human tumor cell panel
Common to all, as to format: cell-based

The subject of one test is SR. Conditions: read-out: Log10 LC50 (converted). From the text: (§1) Considering the diversity of tumors in terms of cell type, morphology, growth rate and other cellular characteristics, the U.S. National Cancer Institute (NCI) has developed a "disease-oriented" approach to antitumor activity screening (M.R. Boyd, in "Principle of Practice of Oncology" J.T. Devita, S. Hellman, S.A. Rosenberg (Eds.) Vol. 3, PPO Update, No. 10, 1989). This in vitro prescreening system is based on the measurement of antitumor cytotoxicity against human tumor cell line panels consisting of approximately 60 cell lines of major human tumors (including leukemia and slower growing tumor cells such as lung, colon, breast, skin, kidney, etc.). The most important advantage of the new in vitro screening panels is the opportunity to identify compounds that are selectively more cytotoxic to cells of slowly growing solid tumors than to rapidly growing leukemia cells.
(§2) The cytotoxic activity of the present selenophene compounds have been measured utilizing two different assays or screens. The first screen measures the cytotoxicity against a panel of sixty different human tumor cell lines. This assay provides data regarding the general cytotoxicity of an individual compound. In particular this type of assay is useful in identifying compounds which have enhanced cytotoxic activity against slow growing tumors as compared to faster growing tumor cells such as leukemia tumor cell lines. The identification of such compounds is critical since previously identified antitumor agents have low cytotoxic activity against slower growing tumors. […] The specificity of a cytotoxic compound for tumor cell lines relative to normal cells is an important characteristic of an effective antitumor agent.
(§3) Antitumor cytotoxicity data generated from the National Cancer Institute human tumor cell panels can also be expressed in a graphic pattern (mean graph) to display differential cell growth inhibition (K.D. Paull, R.H. Shoemaker, L. Hodes, A. Monks, D.A. Scudiero, L. Rubinstein, J. Plowman and M.R. Boyd, J. Nail. Cancer Inst., 81, 1088, 1989.) In the mean graph, the arithmetic mean of the logarithm of the GI50 (50% growth inhibition), TGI (total growth inhibition) or LC50 (50% lethal concentration) values is used as an anchor point. […] The length of a bar is indicative of differential cytotoxicity against a specific type of tumor cells or tumor panels.
(§4) The antitumor cytotoxicity of the selenophene compounds tested in those in vitro assays was measured by a microculture assay using either a 3-(4,5-dimethylthiazol-2-yl)-2,5-diphenyltetrazolium bromide (MTT) or sulforhodamine B (SRB) based assay. [M.R. Boyd in "Principles and Practices of Oncology," V.T. DeVita, Jr.]. The experiments were conducted at Purdue University in 96-well microtiter plates and the cytotoxic effects of the selenophene compounds on those cells were measured by cell count using a Coulter Z.F. counter (Hialeah, FL). The results are expressed as GI50, the concentration of drug at which cell numbers are reduced to 50% of control cell culture [T.C.K. Chan, C.J. Chang, N.M. Koonchanok and R.L. Geahlen, Biochem. Biophys. Res. Commun., 193, 1152, (1993); S. Hellman and S.A. Rosenberg (Eds.), Vol. 3, PPO Updates, Number 10, (1989).]
(§5) This in vitro microculture assay has an advantage over in vivo assays in that results are obtained within a week as opposed to several months. The MTT assay is based on the production of a dark blue formazan product by dehydrogenase in the mitochondria of live tumor cells after exposure to drug for 6 days [M.C. Alley, D.A. Scudiero, A. Monks, M.L. Hursey, M.J. Czerwinski, D.L. Fine, B.J. Abbott, J.G. Mayo, R.H. Shoemaker and M.R. Boyd, Cancer Res., 48, 589, 1988]. Thus, only live cells are stained and can be measured at 570 nm. […]

A further test has as its system A498. Conditions: A498, read-out: Log10 LC50 (converted).
Description: as §1, §2, §3, §4, §5

The next test relates to UACC-62. Conditions: UACC-62, read-out: Log10 LC50 (converted).
Description: as §1, §2, §3, §4, §5

The subject of another test is M14. Conditions: M14, read-out: Log10 LC50 (converted).
Description: as §1, §2, §3, §4, §5

The test system of another test is MOLT-4. Particulars: MOLT-4, read-out: Log10 LC50 (converted).
Description: as §1, §2, §3, §4, §5

In a further test the test system is HCT-15. Particulars: HCT-15, read-out: Log10 LC50 (converted).
Description: as §1, §2, §3, §4, §5

The test system of another test is NCI-H460. Conditions: NCI-H460, read-out: Log10 LC50 (converted).
Description: as §1, §2, §3, §4, §5

The test system of a further test is SK-MEL-28. Conditions: SK-MEL-28, read-out: Log10 LC50 (converted).
Description: as §1, §2, §3, §4, §5

Another test relates to LOX IMVI. Conditions: read-out: Log10 LC50 (converted).
Description: as §1, §2, §3, §4, §5

Another test relates to ACHN. Particulars: read-out: Log10 LC50 (converted).
Description: as §1, §2, §3, §4, §5

The next test has as its system NCI-H322M. Conditions: read-out: Log10 LC50 (converted).
Description: as §1, §2, §3, §4, §5

In the next test the test system is OVCAR-4. Conditions: OVCAR-4, read-out: Log10 LC50 (converted).
Description: as §1, §2, §3, §4, §5

The next test concerns HOP-62. Particulars: HOP-62, read-out: Log10 LC50 (converted).
Description: as §1, §2, §3, §4, §5

A further test deals with HS 578T. Conditions: read-out: Log10 LC50 (converted).
Description: as §1, §2, §3, §4, §5

The next test has as its system CCRF-CEM. Conditions: read-out: Log10 LC50 (converted).
Description: as §1, §2, §3, §4, §5

The next test deals with U251. Particulars: U-251, read-out: Log10 LC50 (converted).
Description: as §1, §2, §3, §4, §5

The subject of a further test is RPMI-8226. Particulars: RPMI-8226, read-out: Log10 LC50 (converted).
Description: as §1, §2, §3, §4, §5

For another test, the system named is K-562. Particulars: K562, read-out: Log10 LC50 (converted).
Description: as §1, §2, §3, §4, §5

A further test deals with SF-539. Particulars: SF-539, read-out: Log10 LC50 (converted).
Description: as §1, §2, §3, §4, §5

For another test, the system named is HCT-116. Particulars: HCT-116, read-out: Log10 LC50 (converted).
Description: as §1, §2, §3, §4, §5

The subject of a further test is A549/ATCC. Particulars: A549, read-out: Log10 LC50 (converted).
Description: as §1, §2, §3, §4, §5

The next test has as its system HCC-2998. Particulars: HCC 2998, read-out: Log10 LC50 (converted).
Description: as §1, §2, §3, §4, §5

For `O=Cc1ccc(-c2ccc(-c3ccc(C=O)[se]3)s2)s1`, the CC50 in the test with SR was over 100 µM; in the test with A498 it was 0.331 µM; in the test with UACC-62, over 100 µM; in the test on M14, over 100 µM; in the test with MOLT-4, over 100 µM; in the test on HCT-15 it was over 100 µM. The CC50 in the test with SK-MEL-28, in the test on LOX IMVI, in the test on ACHN, in the test on OVCAR-4, in the test with HOP-62 and in the test on HS 578T was over 100 µM throughout. Moreover, the CC50 in the test on CCRF-CEM, in the test on U251, in the test with RPMI-8226, in the test with SF-539, in the test with HCT-116 and with A549/ATCC was over 100 µM each time. For the same compound, the CC50 in the test on HCC-2998 was over 100 µM. Further, the LC50 (concentration killing 50% of cells) with NCI-H460 and in the test with NCI-H322M was over 100 µM in each case. Also, the LC50 in the test on K-562 was over 100 µM.

On to `OCc1ccc(-c2ccc(-c3ccc(CO)[se]3)s2)s1`, for which the CC50 with SR was over 100 µM; in the test on A498 it was 0.0724 µM; in the test with UACC-62, over 100 µM; with M14 it was over 100 µM; in the test with MOLT-4 it was over 100 µM; in the test on HCT-15, over 100 µM. Also, the CC50 in the test on SK-MEL-28 was over 100 µM; in the test on LOX IMVI, 56.2 µM; in the test on ACHN it was over 100 µM; with OVCAR-4, 81.3 µM; with HOP-62, 85.1 µM; in the test with HS 578T, over 100 µM. Moreover, the CC50 was over 100 µM in the test with CCRF-CEM; 72.4 µM in the test with U251; over 100 µM with RPMI-8226; 83.2 µM in the test with SF-539; 81.3 µM in the test on HCT-116; over 100 µM in the test on A549/ATCC. Besides, the CC50 in the test with HCC-2998 is 44.7 µM. Besides, the LC50 (concentration killing 50% of cells) in the test on NCI-H460 is 28.8 µM; with NCI-H322M, over 100 µM. Also, the LC50 in the test with K-562 is 97.7 µM.

Turning to `OCc1ccc(-c2ccc(-c3ccc[se]3)s2)[se]1`, the CC50 was over 100 µM in the test on SR; 0.302 µM in the test on A498; over 100 µM with UACC-62; over 100 µM with M14; over 100 µM in the test with MOLT-4; over 100 µM with HCT-15. Besides, the CC50 in the test with SK-MEL-28 is over 100 µM; in the test with LOX IMVI, 85.1 µM; in the test with ACHN it was over 100 µM; with OVCAR-4, over 100 µM; with HOP-62, over 100 µM; with HS 578T it was over 100 µM. The CC50 in the test with CCRF-CEM was over 100 µM; in the test on U251, 44.7 µM; in the test with RPMI-8226 it was over 100 µM; in the test on SF-539, over 100 µM; in the test with HCT-116, over 100 µM; with A549/ATCC it was over 100 µM. Moreover, the CC50 in the test on HCC-2998 was over 100 µM. Further, the LC50 (concentration killing 50% of cells) in the test with NCI-H460 and in the test on NCI-H322M was over 100 µM each time. Further, the LC50 in the test with K-562 was over 100 µM.

For `OCc1ccc(-c2ccc(-c3ccc[se]3)[se]2)[se]1`, the CC50 in the test with SR was over 100 µM; in the test with A498, 0.692 µM; in the test on UACC-62 it was 67.6 µM; in the test with M14, 61.7 µM; in the test with MOLT-4, over 100 µM; in the test with HCT-15, over 100 µM. Further, the CC50 in the test with SK-MEL-28 is 53.7 µM; with LOX IMVI, 37.2 µM; in the test on OVCAR-4, 47.9 µM; with HOP-62, 44.7 µM; in the test with CCRF-CEM, over 100 µM; in the test with U251, 55 µM. In addition, the CC50 with RPMI-8226 is over 100 µM; in the test on SF-539, 51.3 µM; in the test on HCT-116 it was 32.4 µM; with A549/ATCC, 46.8 µM; in the test on HCC-2998 it was 53.7 µM. Moreover, the values for the LC50 (concentration killing 50% of cells) in the test with NCI-H460 and in the test on NCI-H322M were 22.9 µM and 47.9 µM, respectively. Also, the LC50 in the test on K-562 is over 100 µM.

Consider `O=Cc1ccc(-c2ccc(-c3ccc(C=O)[se]3)s2)[se]1`, for which the CC50 in the test on SR, in the test with UACC-62, in the test on M14, in the test on MOLT-4, in the test on HCT-15 and in the test on SK-MEL-28 was over 100 µM throughout. In addition, the CC50 with LOX IMVI, in the test with ACHN, in the test on OVCAR-4, in the test on HOP-62, in the test on HS 578T and in the test on CCRF-CEM was over 100 µM in each case. Besides, the CC50 with U251, with RPMI-8226, in the test with SF-539, in the test on HCT-116, with A549/ATCC and in the test with HCC-2998 was over 100 µM in each case. The LC50 (concentration killing 50% of cells) in the test with NCI-H460 and in the test on NCI-H322M was over 100 µM each time. The LC50 in the test on K-562 was over 100 µM.

Consider `O=Cc1ccc(-c2ccc(-c3ccc[se]3)[se]2)[se]1`, for which the CC50 in the test on A498 is 6.31 µM; in the test with UACC-62 it was 66.1 µM; with M14 it was 72.4 µM; with MOLT-4 it was over 100 µM; in the test on HCT-15 it was 79.4 µM; in the test on SK-MEL-28, 55 µM. The CC50 with LOX IMVI was 77.6 µM; in the test with ACHN, 46.8 µM; in the test on OVCAR-4, 60.3 µM; in the test on HOP-62, 74.1 µM; in the test with HS 578T, 53.7 µM; with CCRF-CEM, over 100 µM. The CC50 is 47.9 µM in the test with U251; over 100 µM in the test on RPMI-8226; 63.1 µM in the test with SF-539; 38.9 µM with HCT-116; 51.3 µM in the test on A549/ATCC; 38.9 µM with HCC-2998. Besides, the figures for the LC50 (concentration killing 50% of cells) in the test with NCI-H460 and in the test on NCI-H322M were 40.7 µM and 60.3 µM, respectively. Besides, the LC50 in the test on K-562 was over 100 µM.
